# Measured values published in patent publication US12534456B2, “Heterocyclyl pyridines as novel fungicides” (Bayer Aktiengesellschaft, priority 2020, dated 2026).
# Test: physchem
# Format: physicochemical
# Details: not given
# Experimental: Measurement of Log P values as provided herein was performed according to EEC directive 79/831 Annex V.A8 by HPLC (High Performance Liquid Chromatography) on reversed phase columns with the following methods: • ^[a]
# If more than one Log P value is available within the same method, all the values are given and separated by “+”.
# Lambda-max-values were determined using UV-spectra from 200 nm to 400 nm and the peak values of the chromatographic signals
row,Compound,LogP
1,Cc1ccc(CC2CON=C(c3cc(C#C[Si](C)(C)C)ncc3Oc3cccc(C(F)(F)F)c3)N2)cc1 (racemic) [Compound I-060],5.53^[a]
2,FC(F)(F)c1cccc(Oc2cnc(Cl)cc2C2=NOCC(c3ccc(Cl)cc3)N2)c1 (racemic) [Compound I-050],3.99^[a]
3,CC(=O)c1cc(C2=NOCC(Cc3ccc(C)cc3)N2)c(Oc2cccc(C(F)(F)F)c2)cn1 (racemic) [Compound I-061],4.07^[a]
4,Clc1cc(C2=NOCC(Cc3ccc(Br)cc3Cl)N2)c(Oc2cccc(C3CC3)c2)cn1 (racemic) [Compound I-026],5.16^[a]
5,"Cc1ccc(CC2CON=C(c3cc(Cl)ncc3Oc3cccc(C4CC4)c3F)N2)c(C)c1 (single isomer, unassigned) [Compound I-022]",4.93^[a]
6,Cc1ccc(CC2CON=C(c3cc(C)ncc3Oc3cccc(Cl)c3)N2)c(C)c1 (racemic) [Compound I-018],3.76^[a]
7,C#Cc1ccc(CC2CON=C(c3cc(Cl)ncc3Oc3cccc(C(F)(F)F)c3)N2)c(C)c1 (stereo not shown) [Compound I-156],4.08^[a]
8,Cc1ccc(CC2CON=C(c3cc(Cl)ncc3Oc3cccc(Cl)c3)N2)c(C)c1 (racemic) [Compound I-002],4.51^[a]
9,FC(F)(F)c1cccc(Oc2cnc(Cl)cc2C2=NOCC(Cc3ccc(Cl)cc3Cl)N2)n1 (racemic) [Compound I-128],4.44^[a]
10,Cc1ccc(C2CON=C(c3cc(Cl)ncc3Oc3cccc(C(F)(F)F)c3)N2)cc1 (racemic) [Compound I-048],3.96^[a]
11,Cc1ccc(CC2CON=C(c3cc(Cl)ncc3Oc3cccc(C4CC4)c3F)N2)c(C)c1 (racemic) [Compound I-014],4.89^[a]
12,FC(F)(F)c1cccc(Oc2cnc(Cl)cc2C2=NOCC(c3ccc4c(c3)OCCO4)N2)c1 (racemic) [Compound I-052],3.48^[a]
13,Fc1c(Oc2cnc(Cl)cc2C2=NOCC(Cc3ccc(Br)cc3Cl)N2)cccc1C1CC1 (racemic) [Compound I-023],5.11^[a]
14,Cc1ccc(CC2CON=C(c3cc(Cl)ncc3Oc3cccc(Br)c3)N2)c(C)c1 (racemic) [Compound I-104],4.74^[a]
15,Cc1ccc(CC2CON=C(c3cc(Cl)ncc3Oc3ccc4c(c3)OC(F)(F)O4)N2)c(C)c1 (racemic) [Compound I-114],4.65^[a]
16,N#Cc1ccc(C2CON=C(c3cc(Cl)ncc3Oc3cccc(C(F)(F)F)c3)N2)cc1 (racemic) [Compound I-080],3.30^[a]

row,Compound,LogP
1,Cc1ccc(CC2CON=C(c3cc(Cl)ncc3Oc3cccc(C4CC4)c3F)N2)c(Cl)c1 (racemic) [Compound I-066],5.04^[a]
2,Cc1ccc(C2CON=C(c3cc(Cl)ncc3Oc3cccc(C(F)(F)F)c3)N2)cc1C (racemic) [Compound I-049],4.24^[a]
3,Cc1ccc(CC(CON2C(=O)c3ccccc3C2=O)NC(=O)c2cc(Cl)ncc2Oc2cccc(C(F)(F)F)c2)c(C)c1 (stereo not shown) [3-13],5.20^[a]
4,Cc1cccc(Oc2cnc(Cl)cc2C2=NOCC(Cc3ccc(Cl)cc3Cl)N2)c1F (stereo not shown) [Compound I-135],4.75^[a]
5,Cc1ccc(CC2CON=C(c3c(Oc4cccc(C(F)(F)F)c4)cnc(Cl)c3F)N2)c(C)c1 (racemic) [Compound I-062],4.66^[a]
6,FC(F)(F)c1cc(Oc2cnc(Cl)cc2C2=NOCC(Cc3ccc(Cl)cc3Cl)N2)cs1 (racemic) [Compound I-072],4.75^[a]
7,Cc1ccc(CC2CON=C(c3cc(Cl)ncc3Oc3cccc(C(F)F)c3)N2)c(C)c1 (racemic) [Compound I-003],4.08^[a]
8,Fc1cccc(Oc2cnc(Cl)cc2C2=NOCC(Cc3ccc(Cl)cc3Cl)N2)c1F (racemic) [Compound I-071],4.40^[a]
9,COc1cccc(Oc2cnc(Cl)cc2C(=O)NC(CON2C(=O)c3ccccc3C2=O)Cc2ccc(C)cc2C)c1 (stereo not shown) [3-09],4.80^[a]
10,Cc1ccc(CC2CON=C(c3cc(Cl)ncc3Oc3cccc(C)c3F)N2)c(C)c1 (racemic) [Compound I-032],4.59^[a]
11,Cc1ccc(CC2CON=C(c3cc(Cl)ncc3Oc3cccc(Br)c3F)N2)c(Cl)c1 (racemic) [Compound I-079],4.70^[a]
12,CC(=O)Oc1cccc(Oc2cnc(Cl)cc2C2=NOCC(Cc3ccc(C)cc3C)N2)c1 (stereo not shown) [Compound I-134],3.90^[a]
13,CC(=O)c1ccc(CC2CON=C(c3cc(Cl)ncc3Oc3cccc(C(F)F)c3)N2)c(Cl)c1 (racemic) [Compound I-038],3.47^[a]
14,Cc1cccc(C2CON=C(c3cc(Cl)ncc3Oc3cccc(C(F)(F)F)c3)N2)c1C (stereo not shown) [Compound I-157],4.23^[a]
15,Cc1cc(Cl)ccc1CC(CCl)NC(=O)c1cc(Cl)ncc1Br (stereo not shown) [17-04],3.98^[a]
16,FC(F)(F)c1cccc(Oc2cnc(Cl)cc2C2=NOCC(c3ccc4c(c3)CCO4)N2)c1 (racemic) [Compound I-044],3.57^[a]

# Next, values leading:
row,LogP,Compound
1,4.83^[a],FC(F)(F)c1cccc(Oc2cnc(Cl)cc2C2=NOCC(Cc3cc(Cl)sc3Cl)N2)c1 (stereo not shown) [Compound I-145]
2,5.62^[a],O=C(NC(CON1C(=O)c2ccccc2C1=O)Cc1ccc(Br)cc1Cl)c1cc(Cl)ncc1Oc1cccc(C2CC2)c1F (stereo not shown) [3-05]
3,2.76^[a],O=C(O)c1cc(Cl)ncc1Oc1cccc(Cl)c1 [Compound 1-11]
4,3.39^[a],COc1cccc(Oc2cnc(Cl)cc2C(=O)NC(CON)Cc2ccc(Br)cc2Cl)c1 (stereo not shown) [4-08]
5,4.10^[a],COCc1cccc(Oc2cnc(Cl)cc2C2=NOCC(Cc3ccc(C)cc3C)N2)c1 (stereo not shown) [Compound I-153]
6,2.48^[a],O=C(O)c1cc(Cl)ncc1Oc1cccc(C(F)F)c1 [Compound 1-10]
7,3.44^[a],Cc1cc(Cl)ccc1CC1CON=C(c2cc(Cl)ncc2Br)N1 (stereo not shown) [7-06]
8,4.08^[a],NOCC(Cc1ccc(Br)cc1Cl)NC(=O)c1cc(Cl)ncc1Oc1cccc(C2CC2)c1F (stereo not shown) [4-05]
9,4.07^[a],CCC1ON=C(c2cc(Cl)ncc2Oc2cccc(C(F)(F)F)c2)NC1c1ccc(OC)cc1 (mixture of isomers) [Compound I-122]
10,5.00^[a],O=C(NC(CON1C(=O)c2ccccc2C1=O)Cc1ccc(Br)cc1Cl)c1cc(Cl)ncc1Oc1cccc(C(F)F)c1 (stereo not shown) [3-10]
11,5.16^[a],FC(F)(F)Sc1cccc(Oc2cnc(Cl)cc2C2=NOCC(Cc3ccc(Cl)cc3Cl)N2)c1 (racemic) [Compound I-090]
12,2.86^[a],COc1cc(C(=O)O)c(Oc2cccc(C(F)(F)F)c2)cn1 [Compound 1-15]
13,4.15^[a],NOCC(Cc1ccc(Br)cc1Cl)NC(=O)c1cc(Cl)ncc1Oc1cccc(C2CC2)c1 (stereo not shown) [4-02]
14,4.59^[a],Cc1ccc(C2(C)NC(c3cc(Cl)ncc3Oc3cccc(C(F)(F)F)c3)=NO2)cc1 (racemic) [Compound I-109]
15,5.74^[a],Cc1ccc(CC(CCl)NC(=NO)c2c(Oc3cccc(C(F)(F)F)c3)cnc(Cl)c2F)c(C)c1 (stereo not shown) [16-01]
16,5.54^[a],O=C(NC(CON1C(=O)c2ccccc2C1=O)Cc1ccc(Cl)cc1Cl)c1cc(Cl)ncc1Oc1cccc(C2CC2)c1F (stereo not shown) [3-04]
17,5.35^[a],Cc1ccc(CC(CCl)NC(=NO)c2cc(Cl)nc(Cl)c2Oc2cccc(C(F)(F)F)c2)c(C)c1 (stereo not shown) [16-07]

row,LogP,Compound
1,3.65^[a],Cc1ccc(CC2CON=C(c3cc(Cl)ncc3Oc3cnc4ccccc4c3)N2)c(C)c1 (racemic) [Compound I-093]
2,4.88^[a],Cc1ccc(CC2CON=C(c3cc(Cl)ncc3Oc3ccc4c(c3)CC4)N2)c(C)c1 (racemic) [Compound I-036]
3,2.41^[a],Cc1ccc(CC(CCN)NC(=O)c2cc(Cl)ncc2Oc2cccc(C(F)(F)F)c2)c(C)c1 (stereo not shown) [4-13]
4,4.81^[a],Cc1cc(Br)ccc1CC1CON=C(c2cc(Cl)ncc2Oc2cccc(C(F)(F)F)c2)N1 (stereo not shown) [Compound I-158]
5,4.47^[a],FC(F)(F)c1cccc(Oc2cnc(Cl)cc2C2=NOC(C3CC3)C(c3ccc(Cl)cc3)N2)c1 (mixture of isomers) [Compound I-139]
6,5.14^[a],Cc1ccc(CC2CON=C(c3cc(Cl)ncc3Oc3cccc4c3CCC4)N2)c(C)c1 (racemic) [Compound I-116]
7,2.97^[a],O=C(O)c1cc(Cl)ncc1Oc1cccc(C2CC2)c1F [Compound 1-06]
8,4.48^[a],ON=C(NC(CCl)Cc1csc(Cl)c1)c1cc(Cl)ncc1Oc1cccc(C(F)(F)F)c1 (stereo not shown) [16-11]
9,3.64^[a],Cc1ccc(CC2CON=C(c3cc(Cl)ncc3Oc3cccc(C=O)c3)N2)c(C)c1 (racemic) [Compound I-085]
10,4.56^[a],Oc1cc(C2=NOCC(Cc3ccc(Br)cc3Cl)N2)c(Oc2cccc(C(F)F)c2)cn1 (stereo not shown) [Compound I-137]
11,3.44^[a],Cc1cccc(CC2CON=C(c3cc(Cl)ncc3Br)N2)c1Cl (stereo not shown) [7-07]
12,4.97^[a],ON=C(NC(CCl)Cc1ccc(C(F)(F)F)cc1Cl)c1cc(Cl)ncc1Oc1cccc(C(F)(F)F)c1 (stereo not shown) [16-09]
13,2.87^[a],O=C(O)c1cc(Cl)ncc1Oc1cccc(C2CC2)c1 [Compound 1-12]
14,4.23^[a],Cc1ccc(CC2CON=C(c3cc(Cl)ncc3Oc3ccc4c(c3)CCO4)N2)c(C)c1 (racemic) [Compound I-111]
15,5.28^[a],Cc1ccc(CC(CCl)NC(=NO)c2c(Oc3cccc(C(F)(F)F)c3)cnc(Cl)c2I)c(C)c1 (stereo not shown) [16-05]
16,4.12^[a],COc1cc(C(=NO)NC(CCl)Cc2ccc(C)cc2Cl)c(Br)cn1 (stereo not shown) [18-03]

# Same assay, conditions: Table 3, compounds of formula (1); method [a]: LC-UV, acidic range, 0.1% formic acid in water and acetonitrile
row,Compound,chromatographic logP
1,"O=C(O)c1cc(Cl)ncc1Oc1cccc(C(F)(F)F)c1 [Compound 1-13, 2-chloro-5-[3-(trifluoromethyl)phenoxy]isonicotinic acid]",2.84

# Same assay, conditions: Table 17, compounds of formula (12); method [a]; several values joined by + in some cells
row,Compound,chromatographic logP
1,"COc1ccc(C(=O)C(F)(F)ON=C(N)c2cc(Cl)ncc2Oc2cccc(C(F)(F)F)c2)cc1 [Compound 12-09, 2-chloro-N′-[1,1-difluoro-2-(4-methoxyphenyl)-2-oxoethoxy]-5-[3-(trifluoromethyl)phenoxy]pyridine-4-carboximidamide]",3.65
